Measurements taken from ChEMBL document CHEMBL1201862, “PubChem BioAssay data set” (2004).
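In this assay, cells in 96-well plates receive the compound at five concentrations for 48 hours. Endpoints are linearly interpolated between the surrounding concentrations. At the GI50, growth is halved.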 The source made the active and inactive calls. Rule as the data show it: active = GI50 up to about 1.1 µM and inactive = higher.

What was measured:
Test in all cases: NCI anticancer screen, dose series, 48 h
DU-145 = tested on: DU-145
MOLT-4 = tested on: MOLT-4
UACC-257 = tested on: UACC-257
T47D = tested on: T47D
SK-MEL-5 = tested on: SK-MEL-5
A498 = tested on: A498
MDA-N = tested on: MDA-N
SNB-19 = tested on: SNB-19
HOP-92 = tested on: HOP-92
TK-10 = tested on: TK-10
OVCAR-4 = tested on: OVCAR-4
MDA-MB-231 = tested on: MDA-MB-231
CAKI-1 = tested on: CAKI-1
SF-295 = tested on: SF-295
HL-60 = tested on: HL-60
NCI-H460 = tested on: NCI-H460
BT-549 = tested on: BT-549
Hs-578T = tested on: Hs-578T
SF-539 = tested on: SF-539
SNB-75 = tested on: SNB-75
IGROV-1 = tested on: IGROV-1
UACC-62 = tested on: UACC-62
ACHN = tested on: ACHN
SW-620 = tested on: SW-620
SR = tested on: SR
CCRF-CEM = tested on: CCRF-CEM
SK-OV-3 = tested on: SK-OV-3
HCT-15 = tested on: HCT-15
SK-MEL-2 = tested on: SK-MEL-2
RPMI-8226 = tested on: RPMI-8226
PC-3 = tested on: PC-3
NCI-H522 = tested on: NCI-H522
MCF7 = tested on: MCF7
NCI/ADR-RES = tested on: NCI/ADR-RES
OVCAR-8 = tested on: OVCAR-8
SN12C = tested on: SN12C
COLO 205 = tested on: COLO 205
LOX IMVI = tested on: LOX IMVI
EKVX = tested on: EKVX
HT-29 = tested on: HT-29
OVCAR-5 = tested on: OVCAR-5
HCT-116 = tested on: HCT-116
A549 = tested on: A549
M14 = tested on: M14
SF-268 = tested on: SF-268
KM12 = tested on: KM12
SK-MEL-28 = tested on: SK-MEL-28
U-251 = tested on: U-251
K562 = tested on: K562
OVCAR-3 = tested on: OVCAR-3
NCI-H23 = tested on: NCI-H23
786-0 = tested on: 786-0
UO-31 = tested on: UO-31
MDA-MB-435 = tested on: MDA-MB-435
HCC 2998 = tested on: HCC 2998

`Cc1ccc2c(sc(-c3ccc4c(c3)sc(-c3ccc(N(C)C)cc3)[n+]4C)[n+]2C)c1S(=O)(=O)O.Cc1ccc2c(sc(-c3ccc4c(c3)sc(-c3ccc5c(c3)sc(-c3ccc(N(C)C)cc3)[n+]5C)[n+]4C)[n+]2C)c1S(=O)(=O)O` was tested. Which GI50 (DU-145) did it give?
Its GI50 is > 100 µM (inactive).

What about the GI50 (MOLT-4) of the same molecule?
The GI50 was 51.9 µM (inactive).

And the GI50 (UACC-257)?
The GI50 was > 100 µM (inactive).

And the GI50 (T47D)?
Its GI50 is 85.9 µM (inactive).

What about the GI50 (SK-MEL-5) of the same molecule?
Its GI50 is > 100 µM (inactive).

What about the GI50 (A498) of the same molecule?
Its GI50 is > 100 µM (inactive).

And the GI50 (MDA-N)?
Its GI50 is > 100 µM (inactive).

And the GI50 (SNB-19)?
Its GI50 is > 100 µM (inactive).

What about the GI50 (HOP-92) of the same molecule?
The GI50 was > 100 µM (inactive).

And the GI50 (TK-10)?
Its GI50 is > 100 µM (inactive).

What about the GI50 (OVCAR-4) of the same molecule?
The GI50 was 43 µM (inactive).

What about the GI50 (MDA-MB-231) of the same molecule?
The GI50 was 22 µM (inactive).

And the GI50 (CAKI-1)?
The GI50 was 10 µM (inactive).

What about the GI50 (SF-295) of the same molecule?
Its GI50 is > 100 µM (inactive).

And the GI50 (HL-60)?
The GI50 was 52.8 µM (inactive).

And the GI50 (NCI-H460)?
Its GI50 is 10 µM (inactive).

And the GI50 (BT-549)?
The GI50 was 30.8 µM (inactive).

And the GI50 (Hs-578T)?
The GI50 was 72.4 µM (inactive).

And the GI50 (SF-539)?
Its GI50 is > 100 µM (inactive).

And the GI50 (SNB-75)?
The GI50 was > 100 µM (inactive).

What about the GI50 (IGROV-1) of the same molecule?
The GI50 was 9.79 µM (inactive).

What about the GI50 (UACC-62) of the same molecule?
Its GI50 is > 100 µM (inactive).

And the GI50 (ACHN)?
Its GI50 is 62.7 µM (inactive).

And the GI50 (SW-620)?
The GI50 was > 100 µM (inactive).

What about the GI50 (SR) of the same molecule?
Its GI50 is 1 µM (active).

And the GI50 (CCRF-CEM)?
Its GI50 is 10 µM (inactive).

What about the GI50 (SK-OV-3) of the same molecule?
The GI50 was > 100 µM (inactive).

What about the GI50 (HCT-15) of the same molecule?
The GI50 was 66.1 µM.

What about the GI50 (SK-MEL-2) of the same molecule?
Its GI50 is > 100 µM (inactive).

And the GI50 (RPMI-8226)?
The GI50 was 80.2 µM (inactive).

And the GI50 (PC-3)?
The GI50 was > 100 µM (inactive).

And the GI50 (NCI-H522)?
The GI50 was 30.4 µM (inactive).

And the GI50 (MCF7)?
The GI50 was > 100 µM (inactive).

What about the GI50 (NCI/ADR-RES) of the same molecule?
Its GI50 is > 100 µM (inactive).

What about the GI50 (OVCAR-8) of the same molecule?
The GI50 was > 100 µM (inactive).

What about the GI50 (SN12C) of the same molecule?
The GI50 was > 100 µM (inactive).

What about the GI50 (COLO 205) of the same molecule?
Its GI50 is > 100 µM (inactive).

And the GI50 (LOX IMVI)?
Its GI50 is > 100 µM (inactive).

What about the GI50 (EKVX) of the same molecule?
The GI50 was 76 µM (inactive).

And the GI50 (HT-29)?
The GI50 was > 100 µM (inactive).

And the GI50 (OVCAR-5)?
The GI50 was > 100 µM (inactive).

What about the GI50 (HCT-116) of the same molecule?
The GI50 was > 100 µM (inactive).

And the GI50 (A549)?
Its GI50 is > 100 µM (inactive).

And the GI50 (M14)?
Its GI50 is > 100 µM (inactive).

And the GI50 (SF-268)?
Its GI50 is > 100 µM (inactive).

And the GI50 (KM12)?
Its GI50 is 73.1 µM (inactive).

What about the GI50 (SK-MEL-28) of the same molecule?
Its GI50 is > 100 µM (inactive).

And the GI50 (U-251)?
The GI50 was > 100 µM (inactive).

What about the GI50 (K562) of the same molecule?
The GI50 was 35.5 µM (inactive).

And the GI50 (OVCAR-3)?
The GI50 was > 100 µM (inactive).

What about the GI50 (NCI-H23) of the same molecule?
Its GI50 is > 100 µM (inactive).

And the GI50 (786-0)?
Its GI50 is > 100 µM (inactive).

And the GI50 (UO-31)?
The GI50 was > 100 µM (inactive).

And the GI50 (MDA-MB-435)?
The GI50 was > 100 µM (inactive).

And the GI50 (HCC 2998)?
Its GI50 is > 100 µM (inactive).
